In PubChem BioAssay AID2252 (Southern Research Specialized Biocontainment Screening …, 2010):
pEC50: −log10 of the molar value. “And” between values parts separate entries of the source, which are not always exact repeats. Equal entries are not always repeated.

Test system: THP-1 viability, CellTiter-Glo luminescence, 72 h
Assay: PubChem AID 2252

CO[C@H]1C=CO[C@@]2(C)Oc3c(C)c(O)c4c(O)c(c(C=NN5CCN(C)CC5)c(O)c4c3C2=O)NC(=O)C(C)=CC=C[C@H](C)[C@H](O)[C@@H](C)[C@@H](O)[C@@H](C)[C@H](OC(C)=O)[C@@H]1C
pEC50: 4.37

O=C1C=CC(=O)N1CCCCCCN1C(=O)C=CC1=O
pEC50: 5.48

O=C1c2ccccc2C(=O)N1CCCP(=O)(O)CCc1ccccc1
pEC50: > 7.00

N=c1n(CC(=O)c2ccc(Br)s2)c2ccccc2n1Cc1ccccc1
pEC50: 5.36

CCOc1cc(Br)cc(/C=N/NC(=O)c2cccnc2)c1O
pEC50: 5.12

CCCOc1ccc(C(=O)NNC(=S)NC(=O)CC)cc1
pEC50: 5.55

CCN(CC(O)COc1ccc(OCC(O)CN(CC)C2CCCCC2)cc1)C1CCCCC1 (configuration not stated)
pEC50: 4.43

NC[C@@H]1O[C@H](C23CC4CC(CC(C4)C2)C3)Cc2c1ccc(O)c2O
pEC50: 5.44

CC[C@H](C)[C@@H](CN[C@H](C)CNC)NCCC(c1ccccc1)c1ccccc1
pEC50: 5.15

Cc1cc(=O)oc2ccc(OCC(=O)N3CCC(C)CC3)cc12
pEC50: > 7.00

CCCCCCCCCCOC(=O)Cn1c(COc2ccccc2C)[n+](C)c2ccccc21
pEC50: 5.89

CCCN(CCC)CCNC(=O)C1CCN(Cc2nc(-c3ccc(Cl)cc3)oc2C)CC1
pEC50: 4.61

O=C(Nc1csc(Cl)c1)c1ccccc1
pEC50: > 7.00

O=C(C[n+]1cn(C(F)F)c2ccccc21)c1ccc(Br)cc1
pEC50: 4.45

CC(C)[C@@H]1CC[C@@H](C)C[C@H]1OC(=O)C[n+]1cc(-c2ccc(Cl)cc2)n2c1CCCCC2
pEC50: 5.66

O=C(CSc1ccc(Cl)cc1)c1ccco1
pEC50: > 7.00

CN(CC(=O)Nc1ccc(F)c(F)c1F)c1cnccn1
pEC50: 4.71

Clc1ccc2c(c1)c1cc(Cl)ccc1n2CN1CCOCC1
pEC50: 4.56

CCOc1ccc(-c2nc(N)ncc2-c2ccccc2)c(O)c1
pEC50: 4.33

CCc1c(C)nc2cc(-c3cc(OC)cc(OC)c3)nn2c1N1CCCC1
pEC50: 4.51

CCCCCCCCCCCCOC(=O)C[N+](C)(C)C
pEC50: 4.63

O=C1c2cccc3cccc(c23)C(=O)C1(O)O
pEC50: 4.52

O=C(COc1ccc(Br)cc1CNCCc1ccccc1)NCc1ccccc1
pEC50: 4.98

Clc1ccc2[nH]c3c(c2c1)CCc1cn[nH]c1-3
pEC50: 4.50

CCCCn1c(NS(=O)(=O)c2ccccc2)c(S(=O)(=O)c2ccc(C)cc2)c2nc3ccccc3nc21
pEC50: 4.92

CN1CCN(c2ccccc2NC(=O)c2cc3c(s2)-c2ccccc2OC3)CC1
pEC50: 5.01

COc1ccc(NC(=O)CN(C)S(=O)(=O)c2ccc(Cl)cc2)cc1Cl
pEC50: > 7.00

O=C(N/N=C/c1ccc([N+](=O)[O-])o1)C1CCCC1
pEC50: > 7.00

Cc1ccc(Nc2nc(NCCO)c3ccccc3n2)cc1C
pEC50: 5.51

O=C(Nc1ccc(Cl)cc1)N1CCOC12CCC1(CC2)OCCO1
pEC50: > 7.00

C#CCOCCOCCOCCNc1nc(N2CCN(C(=O)CCCCCCCCCCNC(=O)Cn3cc(CCCCCN)nn3)CC2)nc(N2CCN(C(=O)CCCCCCCCCCNC(=O)[C@@H]([C@H](C)O)n3cc(C)nn3)CC2)n1
pEC50: > 7.00

Cc1c(O)cccc1C(=O)N[C@@H](CSc1ccccc1)[C@H](O)CN1C[C@H]2CCCC[C@H]2C[C@H]1C(=O)NC(C)(C)C
pEC50: 4.92 and 4.94

CS(=O)(=O)c1ccc([C@@H](O)[C@@H](CF)NC(=O)C(Cl)Cl)cc1
pEC50: > 7.00

O=C(N/N=C/c1cc(Cl)cc(Cl)c1O)c1ccncc1
pEC50: 5.27

Cc1cc(N2CCC(C)CC2)nc2cccc(O)c12
pEC50: 4.58

CC(C)(C)c1ccc(OCCNC(=S)Nc2ccccc2)cc1
pEC50: 4.80

Clc1ccc(Nc2ccc(NCc3ccccc3)nn2)cc1
pEC50: 4.65

CC(C)(C)Nc1nc(-c2ccccn2)nc2ccccc12
pEC50: 5.46

CCN(CCNCC(O)COc1ccccc1C(C)C)c1cccc(C)c1 (configuration not stated)
pEC50: 4.96

CCn1ncc(/C=N\NC(=O)c2csc3ccccc23)c1C
pEC50: 4.72

CN(C)CCCN(C(=O)CCc1ccccc1)c1nc2ccc(Br)cc2s1
pEC50: 4.87

COc1cc(CNc2ccc(N3CCN(C(C)=O)CC3)cc2)ccc1OCc1ccccc1
pEC50: 5.19

CC(NCc1ccc(Cl)c(Cl)c1)C(O)c1ccccc1 (configuration not stated)
pEC50: 4.51

NC1=NC[C@H](Cc2ccccc2)N1CCCCC1CCCCC1
pEC50: 5.46

CCCCCCCCCCOC(=O)Cn1c(COc2cccc(C)c2)[n+](C)c2ccccc21
pEC50: 5.61

O=[N+]([O-])c1cccnc1S(=O)(=O)c1ccccc1
pEC50: 5.75

CCN(CC)CCOC(=O)c1ccc(N/C=C(/C#N)c2nc(-c3ccc(OC)c(OC)c3)cs2)cc1
pEC50: 4.87

COc1cc([N+](=O)[O-])cc(/C=N/NC(=O)C(O)(c2ccccc2)c2ccccc2)c1O
pEC50: 4.60

O=C(CSc1ccccn1)Nc1nonc1[N+](=O)[O-]
pEC50: 5.16

Cc1ccc(-c2cc(N)nc(-c3ccccc3)c2)cc1
pEC50: 4.54

Cc1cccc2c1Sc1ccc(Cl)cc1CC2N1CCNCC1 (configuration not stated)
pEC50: 5.18

Cc1ccc(C(=O)NCC(=O)NCCc2ccc(S(N)(=O)=O)cc2)s1
pEC50: > 7.00

CN(C)CC/C=C1\c2ccc(F)cc2Sc2cc(F)c(Cl)cc21
pEC50: 4.95

O=C(Cn1cc[n+](CC(=O)c2ccc(Cl)cc2Cl)c1)c1ccc(Cl)cc1Cl
pEC50: 4.79

CSc1nnc(-c2cccc(NC(=S)NN)c2)o1
pEC50: > 7.00

CCN1/C(=C/C(C)=C/c2sc3ccccc3[n+]2CC)Sc2ccccc21
pEC50: 6.14

NCCCC[C@H]1CN=C(N)N1CCC12CC3CC(CC(C3)C1)C2
pEC50: 4.31

C[C@H]1c2cccc(O)c2C(O)=C2C(=O)[C@]3(O)C(O)=C(C(N)=O)C(=O)[C@@H](N(C)C)C3[C@@H](O)C21 (some centres not stated)
pEC50: 4.56

O=Nc1ccc(O)c2ncccc12
pEC50: 5.68

Oc1c(Cl)cc(CN2CCCCC2)c2cccnc12
pEC50: 6.15

COc1cccc(Nc2nc(NCC3CCCO3)c3ccccc3n2)c1 (configuration not stated)
pEC50: 5.64

Cc1ccc(Nc2nc(N)c3ccccc3n2)cc1Cl
pEC50: 4.86

c1cncc(CSc2ccc(-c3cccs3)nn2)c1
pEC50: 4.45

CC(=O)Oc1ccccc1C(=O)Nc1ncc([N+](=O)[O-])s1
pEC50: 4.70

CN(C)CCCNC(=O)c1ccc(-c2nc(-c3ccc(Cl)cc3)cs2)cc1
pEC50: 5.40

CCCCCSc1cc(OC)c(CCNC)cc1OC
pEC50: 4.86

CNCC[C@H](Oc1cccc2ccccc12)c1cccs1
pEC50: 4.74

CC1CCc2cc(F)cc3c(=O)c(C(=O)O)cn1c23 (configuration not stated)
pEC50: > 7.00

CCCC(=O)c1c(NC)cc(C)oc1=O
pEC50: 4.80

Cc1ccc(Nc2cc(C)c3c(O)cccc3n2)cc1C
pEC50: 4.62

CCOC(=O)N/N=C(/C)c1ccc([N+](=O)[O-])o1
pEC50: 4.47

Fc1cccc(NC(=S)NCc2ccc(Cl)cc2)c1
pEC50: 4.33

Cc1ccc(-n2c(Cc3noc4ccccc34)n[nH]c2=S)cc1
pEC50: > 7.00

O=C(NC(=C(Cl)Cl)S(=O)(=O)c1ccc(Cl)cc1)c1ccccc1
pEC50: 4.63

COc1ccc(CNCC(O)COc2ccc(C(C)(C)c3ccccc3)cc2)cc1 (configuration not stated)
pEC50: 4.83

CCCNC1=C(C)C(=O)C2=C(C1=O)C(COC(N)=O)[C@]1(OC)C3NC3CN21 (some centres not stated)
pEC50: 5.05

CCN(CC)CCSc1nnc2c3ccccc3n(Cc3ccccc3)c2n1
pEC50: 4.58

Fc1ccc(Nc2c3c(nc4ccccc24)CCC3)cc1
pEC50: 5.20

Oc1ccc(C[C@@H]2CNCCN2CCC23CC4CC(CC(C4)C2)C3)cc1
pEC50: 5.01

CC(=O)c1cc(O)c2ccccc2c1O
pEC50: 4.38

O=C(Cc1ccccc1)NNC(=S)NC(=O)c1cccs1
pEC50: 4.76

CN1CCN(c2ccc(NC(=O)CSc3ccccc3)cc2F)CC1
pEC50: > 7.00

Oc1cccc2ccc(Nc3ccccn3)nc12
pEC50: 5.76

Oc1ccccc1N=Cc1c(O)ccc2oc3c(c12)CCCC3
pEC50: 4.34

Nc1ncn(C2O[C@H](CO)[C@@H](O)[C@H]2O)c(=O)n1 (some centres not stated)
pEC50: 4.85

CC(C)N1CSC(=S)N(Cc2ccccc2)C1
pEC50: 4.89

Clc1ccc(-c2cc(C3CCNCC3)[nH]n2)c(Cl)c1
pEC50: 4.61

CCCOc1ccc(-c2cn3ccccc3n2)cc1
pEC50: 4.36

O=C(O)CC/C(=C\c1ccccc1[N+](=O)[O-])c1nc2ccccc2s1
pEC50: > 7.00

CN1CCN(/N=C/c2c3ccccc3c(Cl)c3ccccc23)CC1
pEC50: 4.88

CS(=O)(=O)c1ccc2nc(NC(=O)c3ccc(Cl)nc3)sc2c1
pEC50: 4.34

CN(C)CC/C=C1/c2ccccc2Sc2ccc(Cl)cc21
pEC50: 5.00

N/C(=N\N=C/c1ccc(F)cc1)N/N=C\c1ccc(F)cc1
pEC50: 4.72

Cc1cccc(Nc2c3c(nc4ccccc24)CCC3)c1
pEC50: 5.20

Nc1ncn([C@@H]2O[C@H](CO)[C@@H](O)[C@H]2O)c(=O)n1
pEC50: 4.71

CCOC(=O)c1nc(C)n(-c2cc(Cl)ccc2Cl)n1
pEC50: 4.83

Cc1ccc(-c2csc(NC(=O)C[n+]3cc(-c4ccc(C)cc4)n4c3CCC4)n2)cc1
pEC50: 5.08

Cc1cc(N/N=C/c2ccc(F)cc2)nc(NCc2ccccc2)n1
pEC50: 4.65

CC(C)(C)c1ccc(NC(=O)NCc2ccco2)cc1
pEC50: 4.87

CCCN(C(=O)CSc1nc2ccccc2n1CC)C1CCS(=O)(=O)C1 (configuration not stated)
pEC50: 4.83

COc1cc(CNCCc2c[nH]c3ccccc23)ccc1OCc1ccccc1F
pEC50: 4.88

NC(N)=Nc1nc(-c2ccccc2)c2cc(Cl)ccc2n1
pEC50: 5.42

O=C(/C=C/c1ccccc1Cl)c1ccccc(=O)c1O
pEC50: 4.89

CN1CCc2c(sc(NC(=O)c3ccc([N+](=O)[O-])o3)c2C(N)=O)C1
pEC50: 6.15

CCn1nccc1C(=O)Nc1cc(Cl)cc(Cl)c1
pEC50: 4.43

COc1ccccc1C(=O)NNC1=C(C(=O)C(F)(F)F)CCC1
pEC50: 4.82

Cc1cc(OCCCCCNCCO)cc(C)c1Cl
pEC50: 4.67

Cc1ccc2nc(/C(C#N)=C\c3ccc([N+](=O)[O-])o3)[nH]c2c1
pEC50: 5.90

N=c1c2c(n(Cc3ccc(Cl)cc3Cl)c3c1CCC3)CCCC2
pEC50: 5.44

COc1ccc(/C=C/c2cc[n+](C(=O)Cc3ccccc3)cc2)cc1
pEC50: 5.41

COc1ccc2nc(Nc3ccccc3)sc2c1
pEC50: > 7.00

O=C(/C=C/c1ccco1)NC(=S)Nc1cccc(-c2nc3ccccc3o2)c1
pEC50: > 7.00

Nc1nc(Nc2cccc(F)c2)nc2ccccc12
pEC50: 5.05

O=C(N/N=C/c1ccc([N+](=O)[O-])o1)c1ccc(O)cc1
pEC50: 4.88

S=C(Nc1ccc(Cl)c(Cl)c1)NC1CCN(Cc2ccccc2)CC1
pEC50: 4.97

Clc1ccc(C(c2ccc(Cl)cc2)n2cc[n+](CC(OCc3ccc(Cl)cc3Cl)c3ccc(Cl)cc3Cl)c2)cc1 (configuration not stated)
pEC50: 5.84

O=C(N/N=C/c1cc(Cl)ccc1O)c1cccnc1
pEC50: 5.54
